Nine compounds from patent US11560385B2, “Proteasome activity enhancing compounds” (Proteostasis Therapeutics, Inc., priority 2018, dated 2023) can be followed below.

A word on the pIC50: it is −log10 of the IC50, conventionally taken in molar units.

pIC50: −log10 of the molar value.

In this assay the target is USP14 (Homo sapiens (Human), UniProt P54578). As to the kind of experiment: Usp14 inhibition assay (Example 5A, A-series compounds). It is filed as biochemical. As to conditions: average value from a minimum of two experimental determinations; read-out: Usp14 IC50 Category. From the text:
Example 5A: Usp14 Inhibition Assay
The IC50 values in the Table below represent the average value from a minimum of two experimental determinations.

Sequence of USP14 (P54578 whole entry, looked up): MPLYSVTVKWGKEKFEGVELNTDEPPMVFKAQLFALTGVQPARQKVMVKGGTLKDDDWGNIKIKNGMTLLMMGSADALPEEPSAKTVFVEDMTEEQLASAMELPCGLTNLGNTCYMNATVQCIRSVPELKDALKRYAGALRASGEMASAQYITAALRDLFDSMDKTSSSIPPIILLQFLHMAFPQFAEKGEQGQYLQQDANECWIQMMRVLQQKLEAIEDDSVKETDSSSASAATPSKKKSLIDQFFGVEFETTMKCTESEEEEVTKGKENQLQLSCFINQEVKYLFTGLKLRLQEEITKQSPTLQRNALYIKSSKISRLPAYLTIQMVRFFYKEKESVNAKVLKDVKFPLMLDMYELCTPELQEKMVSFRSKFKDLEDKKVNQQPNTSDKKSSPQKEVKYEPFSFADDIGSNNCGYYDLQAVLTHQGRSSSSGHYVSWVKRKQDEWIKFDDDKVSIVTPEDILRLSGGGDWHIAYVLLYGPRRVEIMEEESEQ

Turning to `Cc1c(C(=O)CN2C3CCC2CC(O)C3)c2ccc(CCS(=O)(=O)C3CC3)cc2n1-c1ccc(Cl)cc1` [Example 23A, 1-(1-(4-Chlorophenyl)-6-(2-(cyclopropylsulfonyl)ethyl)-2-methyl-1H-indol-3-yl)-2-((1R,3R,5S)-3-hydroxy-8-azabicyclo[3.2.1]octan-8-yl)ethan-1-one], the pIC50 was > 7.30.
In the case of `Cc1c(C(=O)CN2[C@@H]3CC[C@H]2C[C@H](O)C3)c2ccc(CCS(=O)(=O)C3CC3)cc2n1-c1ccc(Cl)cc1` [Example 24A, 1-(1-(4-Chlorophenyl)-6-(2-(cyclopropylsulfonyl)ethyl)-2-methyl-1H-indol-3-yl)-2-((1R,3s,5S)-3-hydroxy-8-azabicyclo[3.2.1]octan-8-yl)ethan-1-one] it was 7.00 to 7.30.
The same measure for `Cc1c(C(=O)CN2C3CCC2CC(O)C3)c2ccc(CCCC#N)cc2n1-c1ccc(Cl)cc1` (stereo not drawn) [Example 25A, 4-(1-(4-Chlorophenyl)-3-(2-(3-hydroxy-8-azabicyclo[3.2.1]octan-8-yl)acetyl)-2-methyl-1H-indol-6-yl)butanenitrile]: < 7.00; for `Cc1c(C(=O)CN2C3CCC2CC(O)C3)c2ccc(CC3COC3)cc2n1-c1ccc(Cl)cc1` [Example 27A, 1-(1-(4-Chlorophenyl)-2-methyl-6-(oxetan-3-ylmethyl)-1H-indol-3-yl)-2-((1R,3S,5S)-3-hydroxy-8-azabicyclo[3.2.1]octan-8-yl)ethan-1-one]: < 7.00.
For the compound `Cc1c(C(=O)CN2[C@@H]3CC[C@H]2C[C@H](O)C3)c2ccc(CCC3=NCCN3C)cc2n1-c1ccc(Cl)cc1` [Example 28A, 1-(1-(4-Chlorophenyl)-2-methyl-6-(2-(1-methyl-4,5-dihydro-1H-imidazol-2-yl)ethyl)-1H-indol-3-yl)-2-((1R,3S,5S)-3-hydroxy-8-azabicyclo[3.2.1]octan-8-yl)ethan-1-one], the pIC50 was > 7.30.
In the case of `Cc1c(C(=O)CN2C3CCC2CC(O)C3)c2ccc(CCC3=NCCN3C)cc2n1-c1ccc(Cl)cc1` [Example 29A, 1-(1-(4-Chlorophenyl)-2-methyl-6-(2-(1-methyl-4,5-dihydro-1H-bimidazol-2-yl)ethyl)-1H-indol-3-yl)-2-((1R,3R,5S)-3-hydroxy-8-azabicyclo[3.2.1]octan-8-yl)ethan-1-one] it was > 7.30.
`Cc1c(C(=O)CN2C3CCC2CC3)c2ccc(CC#N)cc2n1-c1ccc(Cl)cc1` [Example 30A]: the negative-log IC50 (pIC50) is 7.00 to 7.30.
The same measure for `Cc1c(C(=O)CN2[C@@H]3CC[C@H]2C[C@](O)(C(C)C)C3)c2ccc(CCC#N)cc2n1-c1ccc(Cl)cc1` [Example 32A, 3-(1-(4-Chlorophenyl)-3-(2-(3-hydroxy-3-isopropyl-8-azabicyclo[3.2.1]octan-8-yl)acetyl)-2-methyl-1H-indol-6-yl)propanenitrile]: 7.00 to 7.30; for `Cc1c(C(=O)CN2C3CCCC2CC3)c2ccc(CCC#N)cc2n1-c1ccc(Cl)cc1` [Example 33A, 3-(3-(2-(8-Azabicyclo[3.2.1]octan-8-yl)acetyl)-1-(4-chlorophenyl)-2-methyl-1H-indol-6-yl)propanenitrile]: > 7.30.
